Experimental findings from ChEMBL document CHEMBL5390290, “Discovery of Anti-SARS-CoV-2 Nsp9 Binders from Natural Products by a Native Mass Spectrometry Approach” (J Nat Prod, 2023) are described below.

Activity calls are given as the source filed them. The rule behind the calls is not given here.

For orientation: Kd means the equilibrium constant for the complex coming apart.

In assay [1] the target is Replicase polyprotein 1ab (Severe acute respiratory syndrome coronavirus 2) (UniProt P0DTD1). Description: Binding affinity to recombinant SARS-CoV-2 Nsp9 at 10 to 50 uM by Mass spectrometry analysis. The note with it: dose 10-50 µM.
The target is the same in assay [2]. Description: Binding affinity to recombinant SARS-CoV-2 Nsp9 at 10 uM by Mass spectrometry analysis relative to control.
The target is the same in assay [3]. In words: Binding affinity to recombinant SARS-CoV-2 Nsp9 at 50 uM by Mass spectrometry analysis relative to control.
Assay [4] shares this target. In words: Binding affinity to SARS-CoV-2 Nsp9 at 25 uM by LC-MS/MS analysis relative to control.
The target of assay [5] is Replicase polyprotein 1ab (Severe acute respiratory syndrome coronavirus 2, UniProt P0DTD1). Description: Binding affinity to recombinant SARS-CoV-2 Nsp9 assessed as dissociation constant by Mass spectrometry analysis.
For assay [6], the target named is Replicase polyprotein 1ab (Severe acute respiratory syndrome coronavirus 2) (UniProt P0DTD1). In words: Binding affinity to recombinant SARS-CoV-2 Nsp9 at 50 uM by Mass spectrometry analysis.

As for `C=C1[C@@H]2C[C@@]3([C@@H]1O)[C@@H](CC2=O)[C@@]12[C@@H]4[C@@H]3C[C@@H]1[C@@](C)(CC[C@@H]2O)CN4CC`, the outcome in assay [1] was inactive. Still for that read-out and setting: next, `C=C1C[C@]23C4C5N(C)C[C@]6(C)C[C@H](O)C[C@@]5([C@@H]2[C@H](OC(=O)/C(C)=C/CO)[C@H](OC(=O)/C(C)=C/C)[C@H]14)[C@]6(O)[C@@H](O)[C@@H]3O` (stereo partly drawn): “inactive”; `C=C1C[C@]23C4C5N(C)C[C@]6(C)C[C@H](O)C[C@@]5([C@@H]2[C@H](OC(=O)c2ccc(O)cc2)[C@H](OC(=O)/C(C)=C/C)[C@H]14)[C@]6(O)[C@@H](O)[C@@H]3O` (stereo partly drawn): “inactive”. For the compound `C=C1C[C@]23C4C5N(C)C[C@]6(C)C[C@H](O)C[C@@]5([C@@H]2[C@H](OC(=O)/C(C)=C/C)[C@H](OC(=O)/C(C)=C/C)[C@H]14)[C@]6(O)[C@@H](O)[C@@H]3O` (stereo partly drawn), in assay [1], the outcome was inactive. As to `C=C1C(=O)[C@]23[C@H](O)[C@@H]1CC[C@H]2[C@@]12C(O)[C@@]3(O)C(=O)[C@@H]1C(C)(C)CC[C@@H]2O` (stereo partly drawn), the values for the Activity in assay [2] and in assay [3] were 0.05% and 0.38%, respectively. As for `C=C1C(=O)[C@]23[C@H](O)[C@@H]1[C@@H](O)C[C@H]2[C@]12CCCC(C)(C)[C@H]1[C@H](O)[C@@]3(O)OC2`, the Activity in assay [2] and in assay [3] was 0% each time. In assay [1], the outcome was inactive.

Turning to `C=C1C(=O)[C@@]23[C@H]4O[C@H]5O[C@]2(O)[C@@H](O)[C@@H]2C(C)(C)CC[C@H](O)[C@]52[C@@H]3CC[C@H]14`, the Activity in assay [2] was found to be 0.27%; in assay [3], 1%.

In the case of `C=C1C(=O)[C@]23[C@H](O)[C@@H]1CC[C@H]2[C@@]12CO[C@@]3(O)[C@@H](O)[C@@H]1C(C)(C)CC[C@@H]2O`, the Activity in assay [2] was 0.71%; in assay [3], 1%. Also, the result in assay [4] was Active.

In the case of `C=C1C(=O)[C@]23[C@@H](O)[C@H]1CC[C@H]2[C@@]12COC3(O)C[C@@H]1C(C)(C)CC[C@@H]2O`, the Activity in assay [2] is 0%; in assay [3] it was 0.04%. Turning to `CC(C)[C@]1(O)C(OC(=O)c2ccc[nH]2)[C@@]2(O)[C@@]3(C)C[C@]4(O)O[C@@]5([C@H](O)[C@@H](C)CC[C@]35O)[C@@]2(O)[C@@]14C` (stereo partly drawn), the outcome in assay [4] was Active. Further, the Kd in assay [5] is 48 µM.

Turning to `C=C1C[C@]23C[C@@]1(O)CC[C@H]2[C@@]12C=C[C@H](O)[C@](C)(C(=O)O1)[C@H]2[C@@H]3C(=O)O`, the result in assay [6] was Active.

With `C=C1[C@H]2CC[C@H]3[C@@]45CO[C@](O)([C@@H](O)[C@@H]4C(C)(C)CC[C@@H]5O)[C@@]3([C@@H]1O)[C@@H]2O`, the Activity in assay [2] amounted to 2%; in assay [3], 16%. Take `C=C1C(=O)[C@]23[C@H](O)[C@@H]1C[C@@H](O)[C@H]2[C@]12CCCC(C)(C)[C@H]1[C@H](O)[C@@]3(O)OC2`: the Activity in assay [2] was 0.15%; in assay [3], 0.89%.
